We go through five molecules from PMC8637440, “Structural Modifications Yield Novel Insights Into the Intriguing Pharmacodynamic Potential of Anti-inflammatory Nitro-Fatty Acids” (Frontiers in Pharmacology, 2021).

For one test, the system named is NF-κB p65. As to the kind of experiment: NF-κB p65 transcription factor ELISA in TNFα-stimulated HCT-116 cells. It counts as cell-based. To be noted: Homo sapiens, HCT-116, 4 h, read-out: inhibition of NF-κB p65 signaling. The method, then:
(§1) The Nrf-2 and NF-κB transcription factors in the nuclear extracts were detected using an Nrf-2 Transcription Assay Kit (Cayman Chemical, # 600590) and NF-κB (p65 and p50) Transcription Factor Assay Kit (Cayman Chemical, # 10007889 and # 10006912). Prior to assay performance, the nuclear extracts were generated using a Nuclear Extraction Kit (Cayman Chemical, # 10009277). The assay was performed according to the manufacturer’s instructions. For all kits, the nuclear extracts were incubated overnight at 4°C. Development was carried out for 15–20 min or until the wells turned medium to dark blue. Five minutes after the stop solution had been added, the absorbance was read at 450 nm using a plate reader.
The proteasome inhibitor MG132 ([Lee and Goldberg, 1998]) was used as a positive control, as proteasomal inhibition leads to stabilization of I-κB and thus inhibits the activation of the NF-κB signaling pathway. We used a MG132 incubation period of 4 h as longer incubations have been described to activate NF-κB signaling ([Lee et al., 2013]).
FIGURE 1 Effects of NFA on the NF-κB p65 and p50 signaling pathway in colorectal cancer cells. […] Incubation for 4 h with the proteasome inhibitor MG132 (1 µM) served as the positive control. […] Values are normalized to protein concentration and unstimulated vehicle control. Data are represented as mean ± SD of (A) n = 3 (DMSO, 16.9.9, 9NOA control of right panel, 18.4.4, 18.6.7, and 18.9.10), n = 4 (all other derivatives) and (B) n = 5. Statistical significance was calculated by one-way analysis of variance (ANOVA) with Bonferroni post-test. *p ≤ 0.03, **p ≤ 0.0021, ***p ≤ 0.0002, ****p ≤ 0.0001 were considered significant versus TNF-α treatment.
A general note: An ELISA detects its analyte on a solid surface through an enzyme-linked reagent.

Another test has as its system Nrf-2. As to the kind of experiment: Nrf-2 induction in HCT-116 cells (Western blot and ELISA). It counts as cell-based, human. To be noted: 10 µM, 4 h, HCT-116, Western blot and ELISA. The method, then: as §1
HCT-116 and A549 cells were washed with 1× PBS, and cell extracts were generated using a Nuclear Extraction Kit (Cayman Chemical, #10009277) according to the manufacturer’s instructions, whereas whole-cell lysates were obtained using SDS lysis buffer (55.5 mM Tris-HCl pH 6.8, 2.2% SDS, 9% glycerol supplemented with protease (cOmplete® Protease Inhibitor Cocktail, Roche, Mannheim, Germany) and phosphatase (PhosStop® Easy Pack, Roche, Mannheim, Germany) inhibitors. Protein concentrations from the nuclear and cytosolic fractions were determined with a bicinchoninic acid (BCA) protein assay kit (Pierce™, Rockford, Illinois, United States). Cytoplasmic and nuclear extracts (100 µg each) and 30 µg whole-cell lysates were diluted in 5× Laemmli loading dye and denatured for 10 min at 95°C, loaded on a 10% SDS polyacrylamide gel, and separated by gel electrophoresis for 15 min at 80 V followed by 60 min at 120 V. The separated proteins were blotted onto a nitrocellulose membrane (Hybond-C Extra, Amersham Biosciences Ltd., UK) using the Mini Trans-Blot® module (Bio-Rad, Hercules, California, United States) for 90 min at 90 V. The membrane was blocked with Odyssey blocking buffer (Li-Cor Biosciences, Bad Homburg, Germany) or 5% milk powder in TBS-T (Tris Buffered Saline with 0.1% Tween) for 1 h at room temperature (RT). The membranes were incubated with the primary antibodies overnight at 4°C, and then with the secondary antibodies for 1 h at RT. The primary antibodies were diluted 1:1,000 and the secondary antibodies were diluted 1:10,000 to 1:20,000. […]
FIGURE 2 Effects of NFA on Nrf-2 expression in colorectal cancer cells. HCT-116 cells were treated with 10 µM NFA and tBHQ and/or MMF for 4 h, and Nrf-2 levels were analyzed by western blotting and ELISA. […] (B) Nrf-2 expression levels were evaluated with an ELISA after incubation with NFA with different carbon chain lengths and Michael acceptor positions. […]

A further test deals with HCT-116 cells. As to the kind of experiment: WST-1 cell viability assay, HCT-116. The following applies: WST-1 cell viability, 24 h, n.i. = no inhibition observed. It counts as cell-based, human. As to the method: (§2) Cell viability was analyzed with the WST-1 assay based on the cleavage of the stable tetrazolium salt WST-1 by the mitochondrial reductase system. Cells were seeded in the appropriate densities in a clear 96-well plate and settled overnight at 37°C in 5% CO2. The next day, the cells were treated with NFA or the substances of interest (≤0.1% dimethyl sulfoxide [DMSO]) and incubated for 24 or 48 h at 37°C in 5% CO2. Cell viability was analyzed by adding 10 µl WST-1 solution (Roche, Basel, Switzerland) and subsequently incubating the cells at 37°C for another 30–40 min. Absorbance was measured at 450 nm with a control wavelength at 620 nm using a plate reader.
(§3) Besides targeting the NF-κB pathway, the anti-tumorigenic effects of NFA can be observed by a reduction of colorectal cancer cell viability. […] Again, the cytotoxic effects of NFA were determined in HCT-116 and HT-29 colorectal cancer cells in the present study. […] HCT-116 cells were treated with increasing concentrations of NFA differing in chain length and Michael acceptor position for 24 h, and cell viability was determined using the WST-1 assay. Due to their prolonged cell division rate and their lack of sensitivity towards NFA ([Kühn et al., 2018]), HT-29 cells were treated for 48 h to gain improved NFA activity.
For orientation: Formazan colour is commonly taken as a measure of viable cells.

Another test has as its system HT-29 cells. Kind of test: WST-1 cell viability assay, HT-29. It counts as cell-based, human. The following applies: n.i. = no inhibition observed. The method, then: as §2, §3
The target of another test is T1, 5-LO (Homo sapiens, UniProt P09917).
T1 construct: endogenous in cells; host or cells: human PMNL from buffy coats
T1 sequence (P09917 1-674): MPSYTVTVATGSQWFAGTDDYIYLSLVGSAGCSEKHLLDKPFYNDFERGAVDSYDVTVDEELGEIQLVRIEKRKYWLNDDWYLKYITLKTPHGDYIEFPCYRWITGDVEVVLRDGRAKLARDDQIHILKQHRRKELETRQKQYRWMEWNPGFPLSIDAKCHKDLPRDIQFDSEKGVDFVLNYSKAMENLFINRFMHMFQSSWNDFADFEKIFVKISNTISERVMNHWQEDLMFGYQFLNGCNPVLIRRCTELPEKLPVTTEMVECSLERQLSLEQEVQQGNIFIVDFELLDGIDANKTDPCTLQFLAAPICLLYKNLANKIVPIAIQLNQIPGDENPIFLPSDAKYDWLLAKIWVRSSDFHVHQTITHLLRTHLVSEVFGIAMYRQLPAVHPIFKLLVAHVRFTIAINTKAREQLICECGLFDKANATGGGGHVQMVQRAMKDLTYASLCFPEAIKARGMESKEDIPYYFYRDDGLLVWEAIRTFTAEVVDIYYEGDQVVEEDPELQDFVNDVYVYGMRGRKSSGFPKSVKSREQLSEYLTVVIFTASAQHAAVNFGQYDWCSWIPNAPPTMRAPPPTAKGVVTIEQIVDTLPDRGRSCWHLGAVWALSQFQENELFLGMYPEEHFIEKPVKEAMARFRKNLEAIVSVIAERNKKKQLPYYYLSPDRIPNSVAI
As to the kind of experiment: 5-LO product formation (LTB4, 5-HETE) in intact PMNL, A23187 + 20 µM AA. It counts as cell-based. The following applies: 10 µM, A23187 2.5 µM + 20 µM AA (data not shown). The method, then:
Buffy coats from different donors of different blood types were commercially obtained from DRK Blutspendedienst Baden-Württemberg Institute Frankfurt. Donors have given their written consent. […] Following separation, the supernatant was transferred very gently to new 50-ml tubes containing lymphocyte separation medium (LSM) and centrifuged for 10 min at 800 ×g at RT with the centrifuge brake turned off. Afterwards, the supernatant was decanted carefully to discard the platelets and monocytes. The PMNL were washed with 1× PBS before the residual erythrocytes were lysed in two cycles: the cell pellet was resuspended with 10 ml H2O and vortexed for 45 s, and lysis was stopped with 40 ml 1 × PBS. After 10-min centrifugation at 200 ×g at RT, the cycle was repeated once. The supernatant was aspirated, the cell pellet resuspended in 5 ml PBS/glucose and initially separated PMNL preparations with different blood types were finally pooled to gain a sufficient number of cells. […] The enzyme was diluted in PBS/EDTA/ATP, transferred into 5-ml glass tubes, and stored on ice. […] The reaction was stopped by placing the glass tubes on ice. The supernatants were transferred to 1.5 ml reaction tubes and stored at −80°C before LC-MS (liquid chromatography and mass spectrometry) analysis of LTB4 and HETEs as described in 2.6 at the Institute of Pharmacology, Goethe University, University Hospital, Germany. The lipid mediators LTB4, hydroxyeicosatetraenoic acids, 5(S)-HETE, 12(S)-HETE, 15(S)-HETE and 20-HETE were analyzed using liquid chromatography tandem-mass spectroscopy (LC-MS/MS). The LC-MS/MS system consisted of a 5500 QTrap mass spectrometer (Sciex, Darmstadt, Germany), operating in negative ESI mode, an Agilent 1200 HPLC system (Agilent, Waldbronn, Germany) and an HTC Pal autosampler (Chromtech, Idstein, Germany). Sample extraction of LTB4 and HETEs were performed using liquid-liquid extraction: 200 µl of the sample were gently mixed with 20 µl of methanol and 20 µl of internal standard solution and extracted twice with 600 µl ethyl acetate. […] Working solutions of all analytes were prepared in methanol containing 0.1% BHT. The calibration standards were prepared by further dilution of the working standards. […] The residues were reconstituted in 50 µl of methanol:water:BHT (50:50:10^−4, v/v/v) prior to injection into the LC-MS/MS system. Chromatographic separation was achieved using a Gemini NX C18 column (150 mm × 2 mm ID, 5 µm, Phenomenex, Aschaffenburg, Germany) with a precolumn of the same material. A linear gradient was employed at a flow rate of 0.5 ml/min and a total run time of 17.5 min. Mobile phases were A water:ammonia (100:0.05, v/v) and B acetonitrile:ammonia (100:0.05, v/v). […] All data were acquired using Analyst software v1.6.2 and quantitation was performed by MultiQuant software v3.0 (both Sciex, Darmstadt, Germany) using the internal standard method (isotope-dilution mass spectrometry). Calibration curves were calculated by linear regression with 1/x.

Structures can show the parent of a compound that is named as a salt. Residues, ends and D or L forms follow the SMILES beside them. *: point of attachment. Cbz = O=C(OCc1ccccc1)*

Take `CC(C)C[C@@H](C=O)NC(=O)[C@H](CC(C)C)NC(=O)[C@H](CC(C)C)NC(=O)OCc1ccccc1` [MG132, reference compound] (Cbz-Leu-Leu-Leu-aldehyde): in the test on NF-κB p65, the inhibition (commonly the drop in the measured response relative to a control, in per cent) at 1 µM is roughly 90%.
Turning to `COC(=O)/C=C/C(=O)O` [MMF, monomethyl fumarate], the “induction of Nrf-2 (protein levels / signaling)” value with Nrf-2 is listed as “increase”.
In the case of `CC1=CC(=O)C(C(C)C)=CC1=O` [TQ, thymoquinone, reference compound], the IC50 (commonly the midpoint of a concentration-inhibition curve) is 4.2 ± 1.2 µM with HCT-116 cells (Homo sapiens, HCT-116) and 10.3 ± 1.1 µM in the test with HT-29 cells (Homo sapiens, HT-29, 48 h). The “HCT-116 (24 h) IC50” value with HCT-116 cells was “suppressed HCT-116 and HT-29 cell viability effectively”. Further, in the test on HT-29 cells, the “HT-29 (48 h) IC50” value was “suppressed HCT-116 and HT-29 cell viability effectively”.
As to `COc1ccc2c(c1)CC[C@@H]1[C@@H]2CC[C@]2(C)[C@@H](NCCCCCCN3C(=O)C=CC3=O)CC[C@@H]12` [U73122, reference compound], at 5-LO, the “inhibition of 5-LO product formation in PMNL” value is given as greater than 90%.
For the molecule `CC(C)(C)c1cc(O)ccc1O` [tBHQ, tert-butylhydroquinone], the “induction of Nrf-2 (protein levels / signaling)” value in the test with Nrf-2 is on record as “increase”.
